Consider one molecule from patent US4891361A, “Method of minimizing erythema and elastosis” (Sansho Seiyaku Co., Ltd., priority 1985, dated 1990).

Data set [1] concerns erythema. Kind of data set: Animal test: severity of UV-induced erythema on rat back. Type of data set: in vivo, female Spraguex-Dawley rats. Also noted: key: -: No erythema; ±: Very slight erythema; +: Slight erythema; ++: Medium erythema; +++: Severe erythema. To be noted: Test zone, 1% suspension. An excerpt:
(§1) Test Method Ten heads of female Spraguex-Dawley rats of 4-week age were used for the test. The back of each rat was divided into two zones along its center line; one (test zone) was coated with a 1% suspension of kojic acid in a 1% aqueous solution of carboxymethylcellulose, and the other (control zone) was coated with a 1% aqueous solution of carboxymethylcellulose. The coated solution was washed off with hot water one hour later, and each zone was then irradiated with ultraviolet rays for 20 minutes using four UV tubes (Toshiba, Model 20S;E30) placed 62 cm away from the back of each rat. This operation was performed three times a week (on Monday, Wednesday and Friday) and continued over a period of six months. The drug solution and control solution were applied every day (even on days when UV irradiation was omitted). After that, the coating operation alone was continued for an additional six months. Severity of erythema developed on each zone was observed immediately after the start of the test, and 2, 4, 6, 8, 10 and 12 months later.

Data set [2] deals with elastosis. Kind of data set: Animal test: UV-induced elastosis, elastic fiber histology (Hematoxylin-Eosin, Weigert and Orcein-Giemsa staining). The class given is in vivo, female Spraguex-Dawley rats. As to conditions: Test Zone, 1% suspension, total 10, end of the test (12 months).
Description: as §1, with “At” for “Severity of erythema developed on each zone was observed immediately after”, “end” for “start”, “test, tissues were excised from the test” for “test,”, “control zones of each rat, paraffin sections of the skin, prepared from the tissues taken out, were subjected to a Hematoxylin-Eosin, Weigert” for “2, 4, 6, 8, 10”, “Orcein-Giemsa staining process, and the conditions of the elastic fiber were observed.” for “12 months later.”

The subject of data set [3] is mouse melanoma B16 cells. Description: Color fading test of cultured pigment cells (mouse melanoma B16 cells). The class given is cell-based. As for the experimental part:
Besides the effects described above, the drugs of this invention also have powerful action to inhibit the formation of melanin. To be more specific, the drugs are very effective in inhibiting the formation of dopachrome (a red pigment). […] A color fading test of cultured pigment cells was carried out using kojic acid and kojic acid/β-cyclodextrin inclusion complex.
B: 20% solution of kojic acid/β-cyclodextrin inclusion complex
Mouse melanoma B16 cells (hereinafter referred to simply as "B16 cells") (each dish containing […] cells) were grown in Eagle's MEM medium (with 10% fetal calf serum added thereto), (a) in the presence of kojic acid at a concentration of 2.5 mM (Test zone A), (b) in the presence of kojic acid/β-cyclodextrin inclusion complex at a concentration of 2.5 mM (as kojic acid) (Test zone B), and (c) in the absence of any drug (Test zone C), at 37° C. for six days in an atmosphere consisting of 5% CO2 and 95% air. At the end of incubation, each culture was treated with trypsin, then centrifuged at 2000rpm for five minutes to prepare cell pellets, and the degree of blackness was visually compared.

Data set [4] concerns mice. To be noted: mice (both male and female), orally administered; cited from earlier work.
Data set [5] has as its system rats. To be noted: rats (both male and female), orally administered; cited from earlier work.

Usually LD50 stands for the dose at which mortality reaches 50%. Turning to `O=c1cc(CO)occ1O` [Kojic acid], the Severity of erythema entry in data set [1] (Coating Alone, month 8) is “-”; in data set [1] (Coating Alone, month 10) it was “-”; in data set [1] (Coating Alone, month 12), “-”; in data set [1] (Irradiation Period, month 0 (immediately after the start)), “-”; in data set [1] (Irradiation Period, month 2), “+”; in data set [1] (Irradiation Period, month 4) it was “++”. Further, in data set [1] (Irradiation Period, month 6), the Severity of erythema result is recorded as “++”. In addition, the “Number of rats with evaluation + (Slight elastosis)” value in data set [2] is 3. Also, in data set [2], the “Number of rats with evaluation ++ (Medium elastosis)” value is 1. Also, the “Number of rats with evaluation +++ (Severe elastosis)” value in data set [2] amounted to 0. Moreover, the “Number of rats with evaluation - (No elastosis)” value in data set [2] is on record as 3. For the same molecule, the “Number of rats with evaluation ± (Very slight elastosis)” value in data set [2] was 3. For the same molecule, the “Color fading (degree of blackness of cell pellet, visual)” value in data set [3] (2.5 mM (as kojic acid), six days, 37° C., compared with Test zone C (control)) was “Considerable color fading”. The “Inhibition of the formation of melanin (conclusion from color fading test)” value in data set [3] (mouse melanoma B16 cells) is reported as “outstanding effect”. Moreover, the LD50 in data set [4] and in data set [5] was 2500 to 3500 mg/kg throughout.
